Measurements taken from US20170280720A1, “ARGININE […] INHIBITORS AND USES THEREOF” (EPIZYME, INC., priority 2014, published 2017).

Key:
[1] = tested on: asymmetric di-methyl PABP1 in RKO cells; assay: In Cell Western (ICW) for asymmetric di-methyl PABP1 and DNA content in RKO cells; assay type: cell-based; conditions: Homo sapiens, RKO, In Cell Western
Excerpt: RKO adherent cells were purchased from ATCC (American Type Culture Collection), Manassas, Va., USA. DMEM/Glutamax medium, penicillin-streptomycin, heat inactivated fetal bovine serum, 0.05% trypsin and D-PBS were purchased from Life Technologies, Grand Island, N.Y., USA. Odyssey blocking buffer, 800CW goat anti-rabbit IgG (H+L) antibody, and Licor Odyssey infrared scanner were purchased from Licor Biosciences, Lincoln, Nebr., USA. Mono-methyl arginine antibody was purchased from Cell Signaling Technology, Danvers, Mass., USA. Methanol was purchased from VWR, Franklin, Mass., USA. 10% Tween 20 was purchased from KPL, Inc., Gaithersburg, Md., USA. […] was purchased from Biostatus Limited, Leicestershire, UK. RKO adherent cells were maintained in growth medium (DMEM/Glutamax medium supplemented with 10% v/v heat inactivated fetal bovine serum and 100 units/mL penicillin-streptomycin) and cultured at 37° C. under 5% CO2. Cell Treatment, in Cell Western (ICW) for Detection of Asymmetric Di-Methyl PABP1 and DNA Content. RKO cells were seeded in assay medium at a concentration of 30,000 cells per mL to a poly-D-lysine coated 384 well culture plate (BD Biosciences 356697) with 50 μL per well. Compound (100 nL) from a 96-well source plate was added directly to 384 well cell plate. Plates were incubated at 37° C., 5% CO2 for 48 hours. After two days of incubation, plates were brought to room temperature outside of the incubator for ten minutes and blotted on paper towels to remove cell media. Cells were fixed for 20 minutes at room temperature by adding 50 μl of 8% PFA followed by aspiration of supernatant with the Biotek EL406 plate washer. Cells were then permeabilized by addition of 50 μL of ice cold 100% methanol directly to each well and incubated for 30 min at room temperature. After 30 min, plates were transferred to a Biotek EL406 plate washer and washed 2 times with 100 μL per well of wash buffer (1×PBS). Next 60 μL per well of Odyssey blocking buffer (Odyssey Buffer with 0.1% Tween 20 (v/v)) were added to each plate and incubated 1 hour at room temperature. Blocking buffer was removed and 20 μL per well of primary antibody was added (asymmetric-methyl PABP1) diluted 1:400 in Odyssey buffer with 0.1% Tween 20 (v/v)) and plates were incubated overnight (16 hours) at 4° C. Plates were washed 5 times with 100 μL per well of wash buffer. Next 20 μL per well of secondary antibody was added (1:800 800CW goat anti-rabbit IgG (H+L) antibody, 1:2000 DRAQS in Odyssey buffer with 0.1% Tween 20 (v/v)) and incubated for 1 hour at room temperature. The plates were washed 5 times with 100 μL per well wash buffer then 2 times with 100 μL per well of water. Plates were allowed to dry at room temperature then imaged on the Licor Odyssey machine which measures integrated intensity at 700 nm and 800 nm wavelengths. Both 700 and 800 channels were scanned. Calculations: First, the ratio for each well was determined by: Each plate included fourteen control wells of DMSO only treatment (minimum inhibition) as well as fourteen control wells for maximum inhibition treated with 20 μM of a reference compound. The average of the ratio values for each control type was calculated and used to determine the percent activation for each test well in the plate. Reference compound was serially diluted three-fold in DMSO for a total of nine test concentrations, beginning at 20 μM. Percent inhibition was determined and IC50 curves were generated using triplicate wells per concentration of compound.

Human CARM1 (PRMT4) = molecular target: T1, Human CARM1 (PRMT4) (Homo sapiens, UniProt Q86X55); assay: CARM1 biochemical assay (3H-SAM Flashplate, peptide substrate); conditions: read-out: CARM1_ IC50
T1 construct: Flag-CARM1-His; made in house; host or cells: HEK 293F cells (BacMam baculovirus, pFastBacMam)
T1 sequence (Q86X55 2-585 isoform Q86X55-1): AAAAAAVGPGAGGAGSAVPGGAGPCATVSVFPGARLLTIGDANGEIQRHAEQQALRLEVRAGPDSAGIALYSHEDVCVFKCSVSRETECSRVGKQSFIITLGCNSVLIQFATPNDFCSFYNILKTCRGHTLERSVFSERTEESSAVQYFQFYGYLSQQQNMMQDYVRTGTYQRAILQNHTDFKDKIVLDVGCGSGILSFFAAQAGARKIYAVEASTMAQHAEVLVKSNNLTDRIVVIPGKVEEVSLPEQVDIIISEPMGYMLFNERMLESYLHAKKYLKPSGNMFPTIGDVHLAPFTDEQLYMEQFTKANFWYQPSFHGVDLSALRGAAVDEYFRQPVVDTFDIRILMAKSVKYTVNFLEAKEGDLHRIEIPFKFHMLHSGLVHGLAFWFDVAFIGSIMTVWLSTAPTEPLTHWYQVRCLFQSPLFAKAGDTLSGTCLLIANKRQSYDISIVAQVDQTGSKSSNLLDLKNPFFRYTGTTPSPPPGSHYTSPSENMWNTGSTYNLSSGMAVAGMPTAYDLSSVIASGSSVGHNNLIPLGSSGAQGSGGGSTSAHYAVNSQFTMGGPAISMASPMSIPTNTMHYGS
Excerpt: S-adenosylmethionine (SAM), S-adenosylhomocysteine (SAH), bicine, Tween20, dimethylsulfoxide (DMSO), bovine skin gelatin (BSG), sodium butyrate and Tris(2-carboxyethyl)phosphine hydrochloride solution (TCEP) were purchased from Sigma-Aldrich at the highest level of purity possible. ^3H-SAM was purchase from American Radiolabeled Chemicals with a specific activity of 80 Ci/mmol. 384-well streptavidin Flashplates were purchased from PerkinElmer.
Peptide representative of human histone H3 residues 16-30 was synthesized with an N-terminal linker-affinity tag motif and a C-terminal amide cap by 21st Century Biochemicals. The peptide was purified by high-performance liquid chromatography (HPLC) to greater than 95% purity and confirmed by liquid chromatography mass spectrometry (LC-MS). The sequence was Biot-Ahx-[…]-amide and contained a monomethylated arginine at position 26 (SEQ ID NO.: 14).
Human CARM1 (PRMT4) (NM_199141.1) transcript clone was amplified from an HEK 293 cDNA library, incorporating a flanking 5′ sequence encoding a FLAG tag ([…]) (SEQ ID NO.: 6) fused directly to Ala 2 of CARM1 and 3′ sequence encoding a hexa His sequence ([…]) (SEQ ID NO.: 15) fused directly to Ser 608. The gene sequence encoding isoform1 containing a deletion of amino acids 539-561 was amplified subsequently and subcloned into pFastBacMam (Viva Biotech).
Recombinant baculovirus were generated according to Bac-to-Bac kit instructions (Life Technologies). […] Infections were carried out at 37° C. for 48 hours, harvested by centrifugation, and stored at −80° C. for purification.
Column was washed with 500 mM NaCl in buffer A and Flag-CARM1-His was eluted with 200 ug/ml FLAG peptide in buffer A. Pooled fractions were dialyzed in 20 mM Tris, 150 mM NaCl, 5% glycerol and 1 mM DTT, pH 7.8. The purity of recovered protein was 94.
General Procedure for CARM1 Enzyme Assays on Peptide Substrates.
The assays were all performed in a buffer consisting of 20 mM Bicine (pH=7.6), 1 mM TCEP, 0.005% BSG, and 0.002% Tween 20, prepared on the day of use. Compounds in 100% DMSO (1 ul) were spotted into a polypropylene 384-well V-bottom plates (Greiner) using a Platemate Plus outfitted with a 384-channel head (Thermo Scientific). DMSO (1 ul) was added to Columns 11, 12, 23, 24, rows A-H for the maximum signal control and 1 ul of SAH, a known product and inhibitor of CARM1, was added to columns 11, 12, 23, 24, rows I-P for the minimum signal control. A cocktail (40 ul) containing the CARM1 enzyme was added by Multidrop Combi (Thermo-Fisher). The compounds were allowed to incubate with CARM1 for 30 min at room temperature, then a cocktail (10 ul) containing ^3H-SAM and peptide was added to initiate the reaction (final volume=51 ul). The final concentrations of the components were as follows: CARM1 was 0.25 nM, ^3H-SAM was 30 nM, peptide was 250 nM, SAH in the minimum signal control wells was 1 mM, and the DMSO concentration was 2%. The assays were stopped by the addition of non-radiolabeled SAM (10 ul) to a final concentration of 300 uM, which dilutes the ^3H-SAM to a level where its incorporation into the peptide substrate is no longer detectable. 50 ul of the reaction in the 384-well polypropylene plate was then transferred to a 384-well Flashplate and the biotinylated peptides were allowed to bind to the streptavidin surface for at least 1 hour before being washed once with 0.1% Tween20 in a Biotek ELx405 plate washer. The plates were then read in a PerkinElmer TopCount plate reader to measure the quantity of ^3H-labeled peptide bound to the Flashplate surface, measured as disintegrations per minute (dpm) or alternatively, referred to as counts per minute (cpm).
Where dpm=disintegrations per minute, cmpd=signal in assay well, and min and max are the respective minimum and maximum signal controls.
Where top and bottom are the normally allowed to float, but may be fixed at 100 or 0 respectively in a 3-parameter fit. […]

CC(C)n1ncc2c(C(=O)NCc3cnc4ccccn34)cc(-c3cccc(CN(C)CCN)c3)nc21 [Compound 194]
IC50 [1]: 1200 nM | IC50 (Human CARM1 (PRMT4)): 13.6 nM

CC(C)n1ncc2c(C(=O)NCc3cccnc3)cc(-c3cccc(CN(C)CCN)c3)nc21 [Compound 195]
IC50 [1]: 1660 nM | IC50 (Human CARM1 (PRMT4)): 13.9 nM

CC(C)n1ncc2c(C(=O)NCc3cccc4ccnn34)cc(-c3cccc(CN(C)CCN)c3)nc21 [Compound 197]
IC50 [1]: 1660 nM | IC50 (Human CARM1 (PRMT4)): 15 nM

CC(C)n1ncc2c(-c3ccco3)cc(-c3cccc(CN(C)CCN)c3)nc21 [Compound 198]
IC50 [1]: 20000 nM | IC50 (Human CARM1 (PRMT4)): 15.1 nM

CNCCN(C)Cc1cccc(-c2cc(C(=O)NCc3cccnc3)c3cnn(C(C)C)c3n2)c1 [Compound 199]
IC50 [1]: 2180 nM | IC50 (Human CARM1 (PRMT4)): 15.9 nM

CC(C)n1ncc2c(C(=O)N3CCC3)cc(-c3cccc(CN(C)CCN)c3)nc21 [Compound 201]
IC50 [1]: 3050 nM | IC50 (Human CARM1 (PRMT4)): 18.2 nM

CC(C)n1ncc2c(C(=O)NC3CCOC3)cc(-c3cccc(CN(C)CCN)c3)nc21 (stereo not shown) [Compound 202]
IC50 [1]: 1990 nM | IC50 (Human CARM1 (PRMT4)): 19.1 nM

CCOC(=O)Nc1cc(-c2cccc(CN(C)CCNC)c2)nc2c1cnn2C(C)C [Compound 205]
IC50 [1]: 5750 nM | IC50 (Human CARM1 (PRMT4)): 19.6 nM

CC(C)n1ncc2c(C(=O)NCc3cnc[nH]3)cc(-c3cccc(CN(C)CCN)c3)nc21 [Compound 206]
IC50 [1]: 20000 nM | IC50 (Human CARM1 (PRMT4)): 19.7 nM

CNCCN(C)Cc1cccc(-c2cc(C(=O)NCc3nccs3)c3cnn(C(C)C)c3n2)c1 [Compound 207]
IC50 [1]: 1640 nM | IC50 (Human CARM1 (PRMT4)): 20.6 nM

CN(CCN)Cc1cccc(-c2cc(C(=O)NCC3CCOCC3)cc(N(C)CC3CC3)c2)c1 [Compound 208]
IC50 [1]: 5540 nM | IC50 (Human CARM1 (PRMT4)): 20.7 nM

CNCCN(C)Cc1cccc(-c2cc(-c3ccco3)c3cnn(C(C)C)c3n2)c1 [Compound 209]
IC50 [1]: 20000 nM | IC50 (Human CARM1 (PRMT4)): 21.7 nM

CC(C)n1ncc2c(C(=O)NC3CC3)cc(-c3cccc(CN(C)CCN)c3)nc21 [Compound 210]
IC50 [1]: 2000 nM | IC50 (Human CARM1 (PRMT4)): 22.4 nM

CCN(Cc1cccnc1)C(=O)c1cc(-c2cccc(CN(C)CCN)c2)nc2c1cnn2C(C)C [Compound 211]
IC50 [1]: 3250 nM | IC50 (Human CARM1 (PRMT4)): 23.9 nM
